In US20050239806A1, “Pyrrolopyrimidine derivatives and analogs and their use in the treatment and prevention of diseases” (Ambit Biosciences Corporation, priority 2004, published 2005):

Target: T1, human EGFR (wildtype), EGFR(DKIN) (Homo sapiens, UniProt P00533)
T1 construct: Kd for EGFR(DKIN); made in house
Assay: Binding of wildtype-EGFR (T7 phage-displayed kinase competition binding)
Source text: Methods for measuring binding affinities for interactions between small molecules and kinases including FLT3, c-KIT, ABL([…]) [a.k.a. ABL([…])], VEGFR-2 (a.k.a. KDR), and EGFR are described in detail in U.S. application Ser. No. 10/873,835, which is incorporated by reference herein in its entirety. The components of the assays include human kinases expressed as fusions to T7 bacteriophage particles and immobilized ligands that bind to the ATP site of the kinases. […] If the test compound binds the kinase it competes with the immobilized ligand and prevents binding to the solid support. […] The results are read out by quantitating the amount of fusion protein bound to the solid support, which is accomplished by either traditional phage plaque assays or by quantitative PCR (qPCR) using the phage genome as a template. […] The concentration of test molecule that reduces the number of phage bound to the solid support by 50% is equal to the Kd for the interaction between the kinase and the test molecule. Typically, data are collected for twelve concentrations of test compound and, the resultant binding curve is fit to a non-cooperative binding isotherm to calculate Kd. Described in the exemplary assays below is data from binding with varying kinases. […] The term “ND” represents non-determined values. […] The Kd for the interaction between the soluble compound (competitor) molecule and EGFR is equal to the concentration of soluble competitor molecule that causes a 50% reduction in the number of phage recovered in the eluate compared to a control sample lacking soluble competitor.

T1 sequence (P00533 712-979 limits assumed): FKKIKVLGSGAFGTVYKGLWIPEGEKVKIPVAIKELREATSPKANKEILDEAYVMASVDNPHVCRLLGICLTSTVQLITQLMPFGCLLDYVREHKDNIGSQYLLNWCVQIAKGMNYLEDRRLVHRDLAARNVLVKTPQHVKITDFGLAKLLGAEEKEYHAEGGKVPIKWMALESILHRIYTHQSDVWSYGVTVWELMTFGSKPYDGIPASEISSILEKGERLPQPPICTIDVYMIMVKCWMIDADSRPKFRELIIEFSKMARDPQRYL

Row | Structure (SMILES) | Kd
1 | COc1ccc(-c2cc3c(OCc4cccc(C)c4)ncnc3[nH]2)cc1 [Compound C3] | > 10000 nM
2 | COc1ccc(-c2cc3c(OCc4ccccc4)ncnc3[nH]2)cc1 [Compound C4] | 100 to 1000 nM
3 | COc1ccc(-c2cc3c(Oc4cccc(Br)c4)ncnc3[nH]2)cc1 [Compound D3] | 100 to 1000 nM
4 | COc1ccc(-c2cc3c(Oc4cccc(C)c4)ncnc3[nH]2)cc1 [Compound D8] | < 100 nM
5 | COc1cccc(-c2cc3c(Oc4cc(C)cc(C)c4)ncnc3[nH]2)c1 [Compound D18] | 100 to 1000 nM
6 | COc1cccc(-c2cc3c(Oc4cccc(F)c4)ncnc3[nH]2)c1 [Compound D20] | 100 to 1000 nM
7 | COc1cccc(-c2cc3c(Oc4cccc(C(F)(F)F)c4)ncnc3[nH]2)c1 [Compound D21] | 100 to 1000 nM
8 | Cc1cc(C)cc(Oc2ncnc3[nH]c(-c4ccc(O)cc4)cc23)c1 [Compound E2] | < 100 nM
9 | COc1cccc(Oc2ncnc3[nH]c(-c4ccc(O)cc4)cc23)c1 [Compound E4] | 100 to 1000 nM
10 | Clc1ccc(Sc2ncnc3[nH]ccc23)cc1Cl [Compound F3] | 100 to 1000 nM

Results, then the compound that gave them:

Row | Kd | Structure (SMILES)
11 | 100 to 1000 nM | COc1ccc(-c2cc3c(Sc4ccc(Cl)c(Cl)c4)ncnc3[nH]2)cc1 [Compound J3]
12 | 100 to 1000 nM | COc1ccc(-c2cc3c(Sc4cccc(OC)c4)ncnc3[nH]2)cc1 [Compound J9]
13 | 100 to 1000 nM | COc1ccc(-c2cc3c(Sc4cccc(C)c4)ncnc3[nH]2)cc1 [Compound J10]
14 | 100 to 1000 nM | COc1ccc(-c2cc3c(Sc4cccc(C(F)(F)F)c4)ncnc3[nH]2)cc1 [Compound J11]
15 | 100 to 1000 nM | COc1ccc(-c2cc3c(Sc4ccccc4)ncnc3[nH]2)cc1 [Compound J16]
16 | 100 to 1000 nM | Cc1ccc(-c2cc3c(Sc4cccc(F)c4)ncnc3[nH]2)cc1 [Compound J17]
17 | 100 to 1000 nM | Cc1cc(C)cc(Sc2ncnc3[nH]c(-c4ccc(O)cc4)cc23)c1 [Compound J18]
18 | > 10000 nM | COc1cccc(-c2cc3c(Sc4cc(Cl)cc(Cl)c4)ncnc3[nH]2)c1 [Compound J21]
19 | 100 to 1000 nM | COc1cccc(-c2cc3c(Sc4cc(C)cc(C)c4)ncnc3[nH]2)c1 [Compound J22]
20 | 100 to 1000 nM | COc1cccc(Sc2ncnc3[nH]c(-c4cccc(OC)c4)cc23)c1 [Compound J26]
21 | 1000 to 10000 nM | COc1cccc(-c2cc3c(Sc4ccc(C(C)(C)C)cc4)ncnc3[nH]2)c1 [Compound J32]
22 | 100 to 1000 nM | Cc1cccc(Sc2ncnc3c2[nH]c2ccccc23)c1 [Compound K12]
23 | < 100 nM | c1ccc(Sc2ncnc3c2[nH]c2ccccc23)cc1 [Compound K17]
24 | 1000 to 10000 nM | Oc1ccc(-c2cc3c(SCCc4ccccc4)ncnc3[nH]2)cc1 [Compound L1, 4-(4-Phenethylsulfanyl-7H-pyrrolo[2,3-d]pyrimidin-6-yl)-phenol]
25 | 100 to 1000 nM | COc1cccc(Sc2ncnc3[nH]c(-c4ccc(O)cc4)cc23)c1 [Compound L4]
26 | 100 to 1000 nM | COc1ccc(Sc2ncnc3[nH]c(-c4ccc(O)cc4)cc23)cc1 [Compound L11]
27 | 100 to 1000 nM | Oc1cccc(Sc2ncnc3oc(-c4ccccc4)c(-c4ccccc4)c23)c1 [Compound N4]
28 | 100 to 1000 nM | COc1cccc(Sc2ncnc3oc(-c4ccccc4)c(-c4ccccc4)c23)c1 [Compound N12]
